Results reported in patent publication US10857150B2, “Use of sanglifehrin macrocyclic analogues as anticancer compounds” (NEUROVIVE PHARMACEUTICAL AB, priority 2016, dated 2020).
pIC50: −log10 of the molar value. One block for each compound: values may come before it.

Key:
cyclophilin A (CyPA) = cyclophilin A (CyPA) (Homo sapiens, UniProt P62937); settings: cited from earlier work
LIXC-003 = assay: 7-day proliferation assay, Calcein AM staining; type: cell-based; settings: Homo sapiens, 168 h, Example 6, n 2
Experimental: (§1) The cells were seeded in a 96-well plate, test compound or DMSO was added and the plate was incubated for additional four days or 7 days (Calcein AM assay). Viable cell counts were determined after detachment by treatment with trypsin either by trypan blue exclusion, flow cytometry, indirectly by measuring ATP content by addition of an ATP measuring reagent (CellTiter Glo), or Calcein AM, prepared according to the instruction of the manufacturer directly.
(§2) XLfit software ((Fit model: Dose response one site/^F(x)[fit=(A+((B−A)/(1+((C/x)^D))))]) for curve fitting and IC50 calculation) was used for curve fitting and IC50 calculation.
(§3) In vitro evaluation of a sanglifehrin macrocyclic analogue (1) for anticancer activity against human hepatocyte cancer cell lines in comparison with the cyclophilin inhibitor alisporivir and the kinase inhibitor sorafenib in a 7-day proliferation assay. The cell numbers were determined by Calcein AM staining as described in the methods section. Data are from one single experiment or means of two independent experiments testing duplicate samples of 9 concentrations of each compound. All three compounds were included in each experiment.

LIXC-004 = assay: 7-day proliferation assay, Calcein AM staining; type: cell-based; settings: Homo sapiens, 168 h, Example 6, n 2
Experimental: as §1, §2, §3

HepG2 = assay: 7-day proliferation assay, Calcein AM staining; type: cell-based; settings: Homo sapiens, 168 h, Example 6, n 2
Experimental: as §1, §2, §3

LIXC-012 = assay: 7-day proliferation assay, Calcein AM staining; type: cell-based; settings: Homo sapiens, 168 h, Example 6, n 2
Experimental: as §1, §2, §3

LIXC-011 = assay: 7-day proliferation assay, Calcein AM staining; type: cell-based; settings: Homo sapiens, 168 h, Example 6, n 1
Experimental: as §1, §2, §3

LIXC-006 = assay: 7-day proliferation assay, Calcein AM staining; type: cell-based, human; settings: Homo sapiens, 168 h, Example 6, n 2
Experimental: as §1, §2
as §3, with “NV556 (10)” for “the cyclophilin inhibitor alisporivir and the kinase inhibitor sorafenib in”, “one” for “one single”, “with each cell line” for “or means of two independent experiments”, “Both” for “All three”
as §3

[1] = test system: cancer cell lines Huh7, HepG2 and OEM; settings: three cancer cell lines Huh7, HepG2 and OEM; WO2011/098805; cited from earlier work

Chain of cyclophilin A (CyPA) (P62937 whole entry, species assumed): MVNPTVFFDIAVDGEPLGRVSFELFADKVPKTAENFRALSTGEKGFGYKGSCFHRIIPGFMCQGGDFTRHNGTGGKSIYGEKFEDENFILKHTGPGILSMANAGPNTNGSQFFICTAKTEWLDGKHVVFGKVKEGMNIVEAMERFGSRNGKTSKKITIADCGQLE

Structure (SMILES): CC[C@H]1C[C@H](C)[C@@]2(NC1=O)O[C@@H](C[C@H](O)[C@@H](C)CC/C=C/C=C(\C)[C@@H]1C/C=C/C=C/[C@H](O)[C@H](C)[C@@H](O)[C@@H](CCC(C)=O)C(=O)N[C@@H](C(C)C)C(=O)N[C@@H](Cc3cccc(O)c3)C(=O)N3CCC[C@H](N3)C(=O)O1)[C@H](C)[C@H](O)[C@@H]2C [SfA, Sanglifehrin A]
- affinity for CyPA compared to CsA (cyclophilin A (CyPA); higher affinity): approximately 20 fold

- pIC50 (HepG2): 5.53
Structure (SMILES): CNC(=O)c1cc(Oc2ccc(NC(=O)Nc3ccc(Cl)c(C(F)(F)F)c3)cc2)ccn1 [Sorafenib, sorafenib]
- pIC50 (LIXC-003): 8.40
- pIC50 (LIXC-004): 5.66
- pIC50 (LIXC-012): 5.94
- pIC50 (LIXC-011): 6.27
- pIC50 (LIXC-006): 5.40

Structure (SMILES): CC(=O)CCC1C(=O)NC(C(C)C)C(=O)NC(Cc2cccc(O)c2)C(=O)N2CCCC(N2)C(=O)OC(C(C)=CC=CC(=O)OC(C)(C)C)CC=CC=CC(O)C(C)C1O (stereo not drawn) [compound 9]
- effect on cancer cell lines [1]: limited effect

Structure (SMILES): CC(=O)CCC1C(=O)NC(C(C)C)C(=O)NC(Cc2cccc(O)c2)C(=O)N2CCCC(N2)C(=O)OC(C(C)=CCO)CC=CC=CC(O)C(C)C1O (stereo not drawn) [hydroxymacrocycle]
- affinity for CyPA (cyclophilin A (CyPA); Sedrani et al., 2003): strong affinity
